Patent publication US20100286284A1, “5-[1'-(DECAHYDRO-7-HYDROXY-1,1,3A,7-TETRAMETHYL-1H-CYCLOPROPA[A]NAPHTHALEN-4-YL)-3'-METHYLBUTYL]-2,4,6-TRIHYDROXY-1,3-BENZENEDICARBOXALDEHYDE AS MEDICAMENTS” (Pierre Fabre Medicament, priority 2008, published 2010)

What was measured:
Format in all cases: biochemical
[1] = test system: Dopamine reuptake; assay: Reuptake of dopamine (DA), [3H]-DA uptake in synapses of rat striatum; details: in vitro, 15 min at 37° C.
Procedure: (§1) The uptake tests were carried out in vitro on rat synapses.
(§2) Following incubation, the samples are rapidly filtered in vacuo through glass fibre filters (GB/B, Packard) and rinsed twice with ice-cold incubation buffer to eliminate free [^3H]-dopamine. The filters are dried and the radioactivity retained is measured by a scintillation counter (Topcount, Packard) using a scintillation cocktail (Microscint O, Packard).
(§3) The results are expressed as a percentage inhibition of the reuptake of the neurotransmitter evaluated.

[2] = test system: Noradrenaline reuptake; assay: Reuptake of noradrenaline (NE), [3H]-NE uptake in synapses of rat hypothalamus; details: in vitro, 20 min at 37° C.
Procedure: as §1
The basal activity is determined by incubating the same mixture for 20 min at 37° C. in the presence of 10 μM of protriptyline to block the reuptake.
as §2, with “[^3H]-NE.” for “[^3H]-dopamine.”
as §3

[3] = test system: Serotonin reuptake; assay: Reuptake of serotonin (5-HT), [3H]-serotonin uptake in rat brain synapses; details: in vitro, synapses from rats' brains, 15 min at 37° C.
Procedure: as §1
The basal activity is determined by incubating the same mixture for 15 min at 37° C. in the presence of 10 μM imipramine to block the reuptake.
as §2, with “[^3H]-serotonin.” for “[^3H]-dopamine.”
as §3

Compound: CC(C)C[C@@H](c1c(O)c(C=O)c(O)c(C=O)c1O)[C@@H]1CC[C@@](C)(O)[C@@H]2[C@@H]3C(CC[C@]21C)C3(C)C (stereo partly drawn) [Macrocarpal L]
- IC50 Dopamine reuptake [1]: 1.0 μg/ml of solution
- IC50 Noradrenaline reuptake [2]: 3.1 μg/ml of solution
- IC50 Serotonin reuptake [3]: 1.8 μg/ml of solution

Compound: Hyperforin
- IC50 Dopamine reuptake [1]: 0.23 μg/ml of solution
- IC50 Noradrenaline reuptake [2]: 0.79 μg/ml of solution
- IC50 Serotonin reuptake [3]: 0.89 μg/ml of solution
